Columns and labels:
[1] = cited from earlier work
[2] = tested on: LAMP reaction on lambda phage DNA; assay: LAMP with contaminants (Example 4); format: biochemical; settings: 10% additive (1 uL in 10 uL reaction)
Description: LAMP reactions were carried out using standard conditions provided by NEB with slight modifications. LAMP solutions were provided by NEB unless otherwise noted. The final solution contained 1× Isothermal Amplification Buffer I, 1.4 mM dNTPs, 7 mM MgSO4 (5 mM+2 mM in buffer), WarmStart Bst 2.0 (320 U/mL), 1 mg/mL BSA (Ambion) Lambda phage LAMP primers (standard desalted, Integrated DNA Technologies) at concentrations 0.2 uM F3/B3, 1.6 uM FIP/BIP, 0.4 uM LoopF/B as previously developed by Goto in 2009 were used. Reactions were made to a total of 10 uL comprised of 5 uL concentrated reaction mix and 5 uL of purified nucleic acids from the various extraction conditions (NF—H2O for negative control). For positive controls, 5 uL purified lambda phage DNA ([…]) was added to each reaction and for 5 uL template from nucleic acid extractions or each sample was tested in triplicate (n=3) and solutions were made to either 9 uL or 10 uL. The LAMP reaction was carried out by heating to 68° C. and all of the wells were tracked in real-time (image every 35 s) on the BioRad CFX-96 system. Samples were deemed negative if they […] over 30 min. Cycle times were determined automatically using the BioRad analysis software and converted to time-to-positive in minutes. […]

| Structure (SMILES) | Water solubility at 25° C. [1] | other results |
| --- | --- | --- |
| CCCCC(O)CCCC [5-nonanol] | 0.046 g/100 mL | – |
| CCCCCO [1 pentanol] | 2.2 g/100 mL | – |
| CCO [ethanol, reference compound] | – | Inhibition of the LAMP reaction ([2]; no amplification for at least 30 min): completely inhibits the LAMP reaction |
| CCCCCCCCCCCCCO [1 tridecanol] | – | Water solubility at 25° C. (in words) ([1]; explained as a solubility of 1 g per 10 L of solvent): practically insoluble (a |
| CCCCCCCCO [1-octanol] | 0.03 g/100 mL | Delay in LAMP (time-to-positive) ([2]; versus 10 uL positive control): 1.4 min |
| CCCCCCCCCCCCCCCCCCCCO [Arachidyl Alcohol (20 ol), Arachidyl Alcohol] | 0.151 ug/100 mL | – |
